Experimental data from publication PMC6687188, “Novel lactate dehydrogenase inhibitors with in vivo efficacy against Cryptosporidium parvum” (PLoS Pathogens, 2019).
Non-standard residues stand in square brackets, D forms with d. Residues, ends and D or L forms follow the SMILES beside them. ξ: configuration not given here. *: point of attachment. ξNMe2Val = CC(C)C(C(=O)*)N(C)C; NMeV = CN[CH](C(=O)O)C(C)C; NHBn = c1ccc(CN*)cc1

Molecular target: recombinant CpLDH protein (Cryptosporidium parvum, UniProt Q9GT92, F198L/K295E/R251K)

Row | Structure (SMILES) | MEAN CpLDH INHIBITION (%)
1 | CCCC(=O)OCC1OC(n2ccc(N)nc2=O)C(OC(=O)CCC)C1OC(=O)CCC (stereo not drawn) [NSC138429] | -38.75%
2 | COC(=O)[C@@H]1c2cc3c(c(O)c2[C@@H](OC)C[C@@]1(C)O)C(=O)c1c(O)cc2c(c1C3=O)O[C@H]1O[C@@]2(C)[C@H](O)[C@@H](N(C)C)[C@@H]1O [NSC102815] | -3.42%
3 | COc1ccc2c(c1)C=C([N+](=O)[O-])C(C1OC(C)(C)OC1C1COC(C)(C)O1)O2 (stereo not drawn) [NSC618261] | -65.69%
4 | CCOC(=O)C1=C(C)NC(=S)NC1c1ccccc1 (stereo not drawn) [NSC643910] | -38.49%
5 | CCOC(=O)C1=C(O)CSC1=Nc1ccc(N=C2SCC(O)=C2C(=O)OCC)cc1 [NSC623746] | -45.42%
6 | CC(=O)O[C@]1(C(C)=O)CC[C@H]2[C@@H]3C[C@H](C)C4=CC(=O)C=C[C@]4(C)[C@@]3(F)[C@@H](O)C[C@@]21C [NSC47438] | -57.83%
7 | O=C1NC(=S)NC(=O)C1C(=O)Nc1ccccc1 [NSC336628] | -66.49%
8 | CN(C)c1ccc(/C=N/N=C2\C(=O)Nc3c(Cl)cc(Cl)cc32)cc1 [NSC327697] | -11.09%
9 | CC[C@@]1(O)C[C@H](O[C@H]2C[C@H](N(C)C)[C@H](O[C@H]3C[C@H](O)[C@H](O[C@H]4C[C@H](O)[C@H](O)[C@H](C)O4)[C@H](C)O3)[C@H](C)O2)c2c(cc3c(c2O)C(=O)c2c(O)ccc(O)c2C3=O)[C@H]1C(=O)OC [NSC265211] | -47.33%
10 | O=C1OC(c2ccco2)=N/C1=C\c1ccc(Cl)c(Cl)c1 [NSC202000] | -23.71%
11 | O=C1C=CC(CC(=O)c2ccc3ccccc3c2)O1 (stereo not drawn) [NSC634650] | -31.23%
12 | COC1(O)C(=O)c2ccccc2OC1(OC)c1ccccc1 (stereo not drawn) [NSC95848] | -17.43%
13 | N#CC1CC(c2ccccc2)Nc2cc(Cl)ccc2N1 (stereo not drawn) [NSC155595] | -11.00%
14 | Cc1cc(N(CC(C)Br)CC(C)Br)ccc1N=Nc1ccccc1C(=O)O (stereo not drawn) [NSC240419] | -69.26%
15 | NC(=O)c1c([N+](=O)[O-])cc(C(F)(F)F)cc1[N+](=O)[O-] [NSC622640] | -12.99%
16 | CC1=CC(C)(C)N=C2SC(c3ccc(N)cc3)=NN12 [NSC640624] | -5.57%
17 | CC(C)(C)NCCC(O)c1cc(C(F)(F)F)nc2c(C(F)(F)F)cccc12.O=P(O)(O)O (stereo not drawn) [NSC305819] | -15.30%
18 | Cl.Nc1nc(N)c2ncn(-c3ccccc3)c2n1 [NSC29603] | -54.90%
19 | Cc1c(Cl)cccc1NC(=O)c1cccc([N+](=O)[O-])c1O [NSC328477] | -31.70%
20 | c1coc(CNc2ncnc3[nH]ncc23)c1 [NSC1620] | -4.87%
21 | Cn1c(=O)c2nc3sc4c(n3c2n(C)c1=O)C(=O)c1ccccc1C4=O [NSC634568] | -8.97%
22 | Cn1ncc2cc3c(Nc4ccc(Cl)cc4)cccc3nc21 [NSC622732] | -35.66%
23 | COc1ccc(C2C=C(c3ccc4c(c3)OCO4)Oc3c2c(=O)oc2ccccc32)cc1OC (stereo not drawn) [NSC211489] | -11.02%
24 | CCN(CC)CCCC(C)Nc1ccnc(/C=C/c2ccc(Cl)cc2)c1 (stereo not drawn) [NSC157389] | -3.33%
25 | COc1ccc2[nH]c3c(C)c4ccncc4c(C)c3c2c1 [NSC69187] | -16.81%

Row | Structure (SMILES) | MEAN CpLDH INHIBITION (%)
26 | COc1cc2c3c(c1OC)-c1cc4c(cc1CC3(C#N)N(C(=O)c1ccccc1)CC2)OCO4 (stereo not drawn) [NSC627666] | -0.33%
27 | N=C1C=C(N)C(=O)c2[nH]c(=O)ccc21 [NSC111041] | -37.64%
28 | COc1cc2cc3c4cc(OC)c(OC)cc4cc[n+]3c(C)c2cc1OC.O=C([O-])CS(=O)(=O)O [NSC154890] | -11.41%
29 | CC(=O)/C(=C\c1cccc([N+](=O)[O-])c1)C(=O)Nc1ccccc1C [NSC634658] | -26.76%
30 | CC[C@@]1(O)C[C@H](O)c2c(O)c3c(c(O)c2[C@H]1C(=O)OC)C(=O)c1cccc(O)c1C3=O [NSC196524] | -30.88%
31 | CC(=O)Oc1ccc(C(c2ccc(OC(C)=O)cc2)c2ccccn2)cc1 [NSC614826] | -3.85%
32 | CC1CCOC(=O)/C=C/C=C/C(=O)OC2CC3OC4C5OC5(C)C(O)CC4(COC(=O)C1O)C2(C)C31CO1 (stereo not drawn) [NSC328166] | -4.71%
33 | O=C(O)CC(S)C(=O)O (stereo not drawn) [NSC41809] | -14.35%
34 | Cc1ccc(S(=O)(=O)ON=C2CC(c3ccccc3)N(C)C(c3ccccc3)C2)cc1 (stereo not drawn) [NSC351306] | -39.05%
35 | COc1cc([C@@H]2c3cc4c(c(O)c3C[C@H]3COC(=O)[C@@H]32)OCO4)cc(OC)c1O [NSC24817] | -20.22%
36 | Fc1cccc(Cl)c1C1SCc2nc3ccccc3n21 (stereo not drawn) [NSC625483] | -18.24%
37 | COC(=O)Nc1nc2ccc(Br)cc2[nH]1 [NSC154754] | -36.36%
38 | CC(C)(C)OC(=O)NC(Cc1ccccc1)C(=O)OCN1C(=O)C2C3C=CC(C2C1=O)C1C2C(=O)N(COC(=O)C(Cc4ccccc4)NC(=O)OC(C)(C)C)C(=O)C2C31 (stereo not drawn) [NSC607316] | -7.22%
39 | CN(C)CCOC1(Cc2ccc(Cl)cc2Cl)CCC(C(C)(C)C)CC1.Cl (stereo not drawn) [NSC670224] | -73.95%
40 | O=C1C(c2cnc3ccccc3n2)=C(O)c2ccccc21 [NSC634224] | -37.07%
41 | NC(=Nc1nc(-c2ccccn2)cc2ccccc12)c1ccccn1 [NSC637578] | -28.84%
42 | N#CC(C#N)=Cc1ccc(Oc2ccccc2)cc1 [NSC643028] | -52.45%
43 | CN(C)CCCN1c2ccccc2Sc2ccc3ccccc3c21 [NSC18891] | -7.99%
44 | COc1cc2c(c(O)c1OC)-c1c(cc(OC)c(OC)c1OC)C[C@@H](C)[C@@H](C)C2 [NSC330515] | -43.86%
45 | COC(=O)/C(=N\NC(=O)c1ccccc1O)C(C#N)c1ccccc1 (stereo not drawn) [NSC635337] | -28.29%
46 | CCC1CN2CCc3cc(OC)c(OC)cc3C2CC1CC1c2cc(OC)c(OC)cc2CCN1C(=O)C(Cc1c[nH]c2ccccc12)NC(=O)OC(C)(C)C (stereo not drawn) [NSC109350] | -1.18%
47 | COc1cc(OC)c(OC)cc1/C=C/c1ccnc2ccccc12 [NSC80756] | -22.71%
48 | O=[N+]([O-])c1cc(-c2nc(=S)[nH][nH]2)ccc1O [NSC635563] | -59.68%
49 | Cc1cccc(Cl)c1NC(=O)/C=C/c1ccccc1 [NSC191393] | -10.83%
50 | O=C1C=C(Nc2ccccc2C(=O)CC(=O)C(=O)Nc2ccc(Cl)cc2)c2ccccc2C1=O [NSC641253] | -12.80%

Row | Structure (SMILES) | MEAN CpLDH INHIBITION (%)
51 | COCC(=O)OC1CCn2c1nc1c2C(=O)C(C)=C(NC(C)=O)C1=O (stereo not drawn) [NSC651084] | -15.88%
52 | COc1ccc(/C=C2\CCc3ccccc3C2=O)cc1OC [NSC643175] | -25.23%
53 | [O-][S+]1c2ccccc2N=C(c2cccc3ccccc23)CC1c1cccc2ccccc12 (stereo not drawn) [NSC634926] | -0.08%
54 | CO[C@H]1/C=C\C=C(/C)C(=O)NC2=CC(=O)C(N)=C(C[C@@H](C)C[C@H](OC)[C@H](O)[C@@H](C)/C=C(\C)[C@@H]1OC(N)=O)C2=O [NSC255109] | -205.22%
55 | C=C1C(=O)O[C@H]2/C=C(/C)C(=O)C[C@@H]3OC(C)(C)O[C@@]3(C)C[C@H](OC(=O)/C(C)=C\C)[C@H]12 [NSC329696] | -30.73%
56 | C[C@]12C=CC(=O)C=C1[C@@H](F)C[C@H]1[C@@H]3CC[C@](O)(C(=O)CO)[C@@]3(C)C[C@H](O)[C@@]12F [NSC77021] | -2.42%
57 | CC(=O)c1c(O)c(C)c(O)c2c1OC1=CC(=O)C(C(C)=O)C(=O)C12C (stereo not drawn) [NSC5890] | -32.64%
58 | Cc1ccc(Cl)c2c(N=Nc3ccccc3[N+](=O)[O-])c(O)[nH]c12 [NSC118735] | -15.17%
59 | O=C1N[C@@H]2C(=C[C@H](O)[C@@H](O)[C@H]2O)c2cc3c(cc21)OCO3 [NSC349155] | -5.62%
60 | CNC(=S)N/N=C/c1ccc([N+](=O)[O-])s1 [NSC169543] | -46.26%
61 | Cc1ccc2[c](c1)[Sn]([c]1ccccc1)([c]1ccccc1)[c]1cc(C)ccc1N2C [NSC118030] | -56.74%
62 | O=C1C(=O)c2ccccc2C(O)=C1CC=C(Cl)Cl [NSC126771] | -15.17%
63 | C[C@]12Cc3cnc(-c4ccccc4)nc3C[C@@H]1CC[C@@H]1[C@@H]2CC[C@@]2(C)[C@H]1CC[C@]2(C)O [NSC39863] | -20.27%
64 | O=[N+]([O-])c1cc(C(F)(F)F)cc([N+](=O)[O-])c1CCl [NSC622627] | -26.97%
65 | Br.CCN(CC)CC(C)(C)C(=O)/C=C/c1ccc(C)cc1 [NSC382766] | -40.98%
66 | C/C(=N\N=C(/[Se])N1CC2CCC(CC2)C1)c1ccccn1 [NSC323241] | -23.75%
67 | CCCCCCCCCc1c(Cl)nc(Cl)nc1Cl [NSC92510] | -23.70%
68 | N#CC1=C(N)Oc2c(ccc3cccnc23)C1c1ccccc1 (stereo not drawn) [NSC631583] | -36.52%
69 | N#CC(c1ccccc1)N(CCCCCCN(C(=O)c1ccccc1)C(C#N)c1ccccc1)C(=O)c1ccccc1 (stereo not drawn) [NSC681744] | -15.26%
70 | CCC[CH2][Sn]([CH2]CCC)([CH2]CCC)[O]c1cc(Cl)c(Cl)cc1Cl [NSC164914] | -26.61%
71 | CC(C)C(NC(=O)C(C(C)C)N(C)C)C(=O)N(C)C(C(=O)N1CCCC1C(=O)N1CCCC1C(=O)NCc1ccccc1)C(C)C.Cl (stereo not drawn) [NSC669356] (ξNMe2Val-V[NMeV]PP-NHBn; configuration not given here) | -120.43%
72 | CC(=O)[O][Sn]([CH2]c1ccccc1)([CH2]c1ccccc1)[CH2]c1ccccc1 [NSC164909] | -58.07%
73 | N[C@@H](CSC(c1ccccc1)(c1ccccc1)c1ccccc1)C(=O)O [NSC83265] | -6.04%
74 | N#CC(NCc1cccc(CNC(C#N)c2ccccc2)c1)c1ccccc1 (stereo not drawn) [NSC681730] | -12.34%
75 | [O-][n+]1ccccc1[S-].[O-][n+]1ccccc1[S-].[Zn+2] [NSC68093] | -17.03%
